Patent US9815835B2, “Substituted polycyclic carbamolypyridone derivative” (priority 2009, dated 2017)

Experiments:
[1] = molecular target: cap-dependent endonuclease (RNP fraction containing PB1•PB2•PA complex) (Influenza A virus, UniProt P15659); experiment: biochemical; details: RNP from A/WSN/33 virus, capped Cy3/BHQ2 30mer RNA substrate, 60 minutes at room temperature; read-out: CEN IC50
[2] = tested on: influenza virus; experiment: microbe, parasite or virus in culture; assay type: cell-based, influenza virus (MDBK or MDCK cells); details: unidentified influenza virus, 72 h, read-out: CPE EC50, effective concentration to achieve 50% CPE inhibition, 3 days incubation, WST-8

SMILES	IC50 [1]	EC50 [2]
CC(CC(=O)Nc1ccccc1)N1CN(C(c2ccccc2)c2ccccc2)n2ccc(=O)c(O)c2C1=O (stereo not drawn) [Example 238]	101 nM	440 nM
O=C1c2c(O)c(=O)ccn2N(C2c3ccccc3CSc3ccccc32)CN1Cc1nccs1 (stereo not drawn) [Example 316]	69 nM	83 nM
CN1CC[C@@H](N2CN(C3c4ccccc4CCc4ccccc43)n3ccc(=O)c(O)c3C2=O)C1 [Example 250]	113 nM	476 nM
CC(CN1CCSCC1)N1CN(C2c3ccccc3CSc3ccccc32)n2ccc(=O)c(O)c2C1=O (stereo not drawn) [Example 489]	133 nM	14 nM
O=C1c2c(O)c(=O)ccn2N(C2c3ccccc3CSc3ccccc32)CN1CCF (stereo not drawn) [Example 304]	18 nM	15 nM
CCN1CN(C2c3ccccc3CCc3ccccc32)n2ccc(=O)c(O)c2C1=O [Example 266]	43 nM	85 nM
C[C@@H](N1CN([C@H]2c3ccc(Cl)cc3CSc3ccccc32)n2ccc(=O)c(O)c2C1=O)C(F)(F)F [Example 446]	7 nM	11 nM
C[C@H](N1CN([C@@H]2c3ccccc3SCc3c(F)cccc32)n2ccc(=O)c(O)c2C1=O)C(F)(F)F [Example 452]	177 nM	16 nM
CC(C)N1CN(C(c2ccccc2Cl)c2ccccc2Cl)n2ccc(=O)c(O)c2C1=O [Example 240]	37 nM	48 nM
CC(CO)N1CN(C2c3ccccc3CSc3ccccc32)n2ccc(=O)c(O)c2C1=O (stereo not drawn) [Example 363]	58 nM	67 nM
COCCCC1N(C(C)C)C(=O)c2c(O)c(=O)ccn2N1C1c2ccc(Cl)cc2CCc2cc(Cl)ccc21 (stereo not drawn) [Example 524]	57 nM	26 nM
Cc1nnc(CN2CN(C3c4ccccc4CSc4ccccc43)n3ccc(=O)c(O)c3C2=O)o1 (stereo not drawn) [Example 295]	52 nM	334 nM
CC(C)N1CN(C(c2ccccc2)c2ccccc2)n2c(N)cc(=O)c(O)c2C1=O [Example 581]	83 nM	480 nM
O=C1c2c(O)c(=O)ccn2N(C2c3ccccc3CCc3ccccc32)CN1Cc1nccs1 [Example 271]	73 nM	102 nM
CC(N1CN(C(c2ccccc2)c2cccc(Cl)c2)n2ccc(=O)c(O)c2C1=O)C(F)(F)F (stereo not drawn) [Example 241]	197 nM	63 nM
COCCN1C[C@H](C(c2ccccc2)c2ccccc2)n2cc(C(=O)O)c(=O)c(O)c2C1=O [Example 2]	48 nM	293 nM
O=C(O)c1cn2c(c(O)c1=O)C(=O)N(CCOc1ccc(F)cc1)C[C@@H]2C(c1ccccc1)c1ccccc1 [Example 183]	74 nM	2370 nM
CN1CC[C@H](N2CN(C3c4ccccc4CCc4ccccc43)n3ccc(=O)c(O)c3C2=O)C1 [Example 247]	282 nM	2260 nM
CNC(=O)C(C)N1CN(C(c2ccccc2)c2ccccc2)n2ccc(=O)c(O)c2C1=O (stereo not drawn) [Example 233]	228 nM	2240 nM
O=C1c2c(O)c(=O)ccn2N(C2c3ccccc3CSc3ccccc32)CN1C(CF)CF (stereo not drawn) [Example 322]	113 nM	28 nM
O=C1c2c(O)c(=O)ccn2N(C2c3ccccc3CSc3ccccc32)CN1CC1(O)CCCCC1 (stereo not drawn) [Example 372]	164 nM	146 nM

SMILES	IC50 [1]	EC50 [2]
COC[C@H](C)N1CN(C2c3ccccc3CSc3ccccc32)n2ccc(=O)c(O)c2C1=O (stereo partly drawn) [Example 317]	48 nM	17 nM
C[C@@H](N1CN([C@@H]2c3ccccc3SCc3c(C#N)cccc32)n2ccc(=O)c(O)c2C1=O)C(F)(F)F [Example 476]	31 nM	14 nM
Cc1noc(CN2CN(C3c4ccccc4CSc4ccccc43)n3ccc(=O)c(O)c3C2=O)n1 (stereo not drawn) [Example 315]	57 nM	115 nM
CN1CN(C2c3ccccc3CSc3ccc(Cl)cc32)n2ccc(=O)c(O)c2C1=O (stereo not drawn) [Example 331]	45 nM	335 nM
COCCN1CN(C(c2ccccc2)c2ccccc2)n2c(CC#N)cc(=O)c(O)c2C1=O [Example 577]	233 nM	337 nM
O=C1c2c(O)c(=O)ccn2N(C2c3ccccc3CSc3ccccc32)CN1CCO (stereo not drawn) [Example 360]	42 nM	87 nM
O=C(O)c1cn2c(c(O)c1=O)C(=O)N(CC1CCCCO1)C[C@@H]2C(c1ccccc1)c1ccccc1 (stereo partly drawn) [Example 26]	108 nM	547 nM
O=C1NCC(C2c3ccccc3CCc3ccccc32)n2ccc(=O)c(O)c21 (stereo not drawn) [Example 563]	49 nM	464 nM
COCC1N(C(C)C)C(=O)c2c(O)c(=O)ccn2N1C1c2ccccc2CCc2ccccc21 (stereo not drawn) [Example 515]	197 nM	19 nM
COC(OC)C1N(C(C)C)C(=O)c2c(O)c(=O)ccn2N1C1c2ccccc2CCc2ccccc21 (stereo not drawn) [Example 520]	212 nM	17 nM
O=C1c2c(O)c(=O)ccn2N(C2c3ccccc3CCc3ccccc32)CN1C1CC1 [Example 108]	37 nM	19 nM
CC(C)N1CN(C2c3ccc(Cl)cc3CCc3cc(Cl)ccc32)n2ccc(=O)c(O)c2C1=O [Example 246]	82 nM	26 nM
CN1C[C@H](C2c3ccccc3CSc3ccccc32)n2ccc(=O)c(O)c2C1=O (stereo partly drawn) [Example 562]	22 nM	62 nM
Cc1cccc2c1CSc1ccccc1[C@H]2N1CN([C@H](C)C(F)(F)F)C(=O)c2c(O)c(=O)ccn21 [Example 464]	24 nM	14 nM
CC(C)N1C(=O)c2c(O)c(=O)ccn2N(C2c3ccccc3CCc3ccccc32)C1CN(C)C (stereo not drawn) [Example 536]	71 nM	27 nM
O=C1c2c(O)c(=O)ccn2C(C(c2ccccc2)c2ccccc2)N2CCCCN12 (stereo not drawn) [Example 178]	61 nM	75 nM
O=C1c2c(O)c(=O)ccn2N(C2c3ccccc3CCc3ccccc32)CN1CCO [Example 361]	39 nM	145 nM
COCCN1C(=O)c2c(O)c(=O)ccn2C(C(c2ccccc2)c2ccccc2)N1C (stereo not drawn) [Example 495]	277 nM	310 nM
CN1CCC(N2CN(C3c4ccccc4CCc4ccccc43)n3ccc(=O)c(O)c3C2=O)CC1 [Example 253]	235 nM	280 nM
CC(C)N1C(=O)c2c(O)c(=O)ccn2N(C2c3ccccc3CCc3ccccc32)C1c1ccc(Cl)cc1 (stereo not drawn) [Example 527]	127 nM	88 nM
C[C@H](N1CN([C@@H]2c3ccccc3SCc3cccc(F)c32)n2ccc(=O)c(O)c2C1=O)C(F)(F)F [Example 457]	242 nM	14 nM

SMILES	IC50 [1]	EC50 [2]
CN1CCC(N2CN(C3c4ccccc4CSc4ccccc43)n3ccc(=O)c(O)c3C2=O)CC1 (stereo not drawn) [Example 288]	299 nM	85 nM
CC(C)N1CN(C(c2cccs2)c2cccs2)n2ccc(=O)c(O)c2C1=O [Example 244]	249 nM	108 nM
CCOCCN1CN(C2c3ccccc3CCc3ccccc32)n2ccc(=O)c(O)c2C1=O [Example 268]	18 nM	74 nM
CN1C(=O)c2c(O)c(=O)ccn2C(C(c2ccccc2)c2ccccc2)N1C (stereo not drawn) [Example 496]	170 nM	177 nM
CC(C)N1CN(C2c3cc(F)ccc3CSc3ccc(F)cc32)n2ccc(=O)c(O)c2C1=O (stereo not drawn) [Example 346]	28 nM	18 nM
O=C1c2c(O)c(=O)ccn2N(C2c3ccccc3CSc3ccccc32)CN1C1CC1 (stereo not drawn) [Example 302]	35 nM	14 nM
CN1CN(C2c3ccccc3COc3ccccc32)n2ccc(=O)c(O)c2C1=O (stereo not drawn) [Example 395]	43 nM	89 nM
O=C1c2c(O)c(=O)ccn2N(C2c3ccccc3CSc3ccccc32)CN1[C@@H]1CCN(CCOCc2ccccc2)C1 (stereo partly drawn) [Example 286]	161 nM	121 nM
N#CCN1CC(C2c3ccccc3CCc3ccccc32)n2ccc(=O)c(O)c2C1=O (stereo not drawn) [Example 573]	55 nM	158 nM
CC(C)N1C(=O)c2c(O)c(=O)ccn2N(C2c3ccccc3CCc3ccccc32)C1CCC(F)(F)F (stereo not drawn) [Example 521]	191 nM	15 nM
Cc1ccc(C)c2c1SCc1ccccc1C2N1CN(C(C)C)C(=O)c2c(O)c(=O)ccn21 (stereo not drawn) [Example 358]	51 nM	69 nM
O=C1c2c(O)c(=O)ccn2N(C2c3ccccc3CCc3ccccc32)CN1[C@@H]1CCN(CCO)C1 [Example 254]	135 nM	564 nM
CC(C)N1C(=O)c2c(O)c(=O)ccn2N(C2c3ccccc3CCc3ccccc32)C1CCO (stereo not drawn) [Example 548]	86 nM	38 nM
O=C1c2c(O)c(=O)ccn2N(C2c3ccccc3CCc3ccccc32)CN1Cc1ccccn1 [Example 264]	64 nM	128 nM
CC(C)c1cccc2c1OCc1ccccc1C2N1CN(C(C)C)C(=O)c2c(O)c(=O)ccn21 (stereo not drawn) [Example 412]	292 nM	203 nM
O=C1c2c(O)c(=O)ccn2N(C2c3ccccc3CSc3ccccc32)CN1CC(O)CO (stereo not drawn) [Example 365]	41 nM	2250 nM
CCOC(=O)CC(C)N1CN(C(c2ccccc2)c2ccccc2)n2ccc(=O)c(O)c2C1=O (stereo not drawn) [Example 230]	282 nM	525 nM
NCC1N(CCO)C(=O)c2c(O)c(=O)ccn2N1C1c2ccccc2CCc2ccccc21 (stereo not drawn) [Example 549]	76 nM	2100 nM
Cc1cc(CN2CN(C3c4ccccc4CCc4ccccc43)n3ccc(=O)c(O)c3C2=O)no1 [Example 255]	52 nM	319 nM
COCC(C)N1CN(C2c3ccccc3CSc3ccccc32)n2ccc(=O)c(O)c2C1=O (stereo not drawn) [Example 300]	58 nM	21 nM
CC(C)[C@@H](CO)N1CN(C2c3ccccc3CSc3ccccc32)n2ccc(=O)c(O)c2C1=O (stereo partly drawn) [Example 378]	47 nM	22 nM
